Columns and labels:
Experiment in all cases: relative viability (nuclei count vs DMSO), 5 days (fraction); higher = more cells survive
[1] = tested on: NCI-H2347
Outline: (§1)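 Relative viability equals treated-well nuclei counts divided by vehicle-well nuclei counts. Counts came from 4× images of lung cancer cell lines grown in 1536-well plates for 5 days after pin-tool dosing on the day after seeding. Dosing used one drug alone or a fixed anchor-drug dose plus five library-drug doses (not always all listed) in √10 steps, and values are medians of duplicate plates.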

[2] = tested on: NCI-H3122
Outline: as §1

[3] = tested on: NCI-H596
Outline: as §1

[4] = tested on: RERF-LC-KJ
Outline: as §1

[5] = tested on: NCI-H1792
Outline: as §1

[6] = tested on: NCI-H520
Outline: as §1

[7] = tested on: NCI-H1563
Outline: as §1

[8] = tested on: NCI-H1355
Outline: as §1

[9] = tested on: PC-14
Outline: as §1

[10] = tested on: LXF-289
Outline: as §1

[11] = tested on: SK-MES-1
Outline: as §1

[12] = tested on: NCI-H661
Outline: as §1

[13] = tested on: NCI-H1651
Outline: as §1

[14] = tested on: LCLC-103H
Outline: as §1

[15] = tested on: NCI-H441
Outline: as §1

[16] = tested on: NCI-H460
Outline: as §1

[17] = tested on: NCI-H1915
Outline: as §1

[18] = tested on: NCI-H1755
Outline: as §1

[19] = tested on: NCI-H727
Outline: as §1

[20] = tested on: NCI-H322M
Outline: as §1

COc1cc2nccc(Oc3ccc(NC(=O)Nc4cc(C)on4)c(Cl)c3)c2cc1OC [Tivozanib] + CS(=O)(=O)N1CCN(Cc2cc3nc(-c4cccc5[nH]ncc45)nc(N4CCOCC4)c3s2)CC1 [Pictilisib] (partner 1 µM)
relative viability ([1]; first compound 0.005 µM): 0.599
relative viability ([1]; first compound 0.01581 µM): 0.53
relative viability ([1]; first compound 0.05 µM): 0.846
relative viability ([1]; first compound 0.1581 µM): 0.344
relative viability ([1]; first compound 0.5 µM): 0.727
relative viability ([2]; first compound 0.005 µM): 0.568
relative viability ([2]; first compound 0.01581 µM): 0.547
relative viability ([2]; first compound 0.05 µM): 0.598
relative viability ([2]; first compound 0.1581 µM): 0.644
relative viability ([2]; first compound 0.5 µM): 0.789
relative viability ([3]; first compound 0.005 µM): 0.28
relative viability ([3]; first compound 0.01581 µM): 0.364
relative viability ([3]; first compound 0.05 µM): 0.427
relative viability ([3]; first compound 0.1581 µM): 0.411
relative viability ([3]; first compound 0.5 µM): 0.326
relative viability ([4]; first compound 0.005 µM): 0.509
relative viability ([4]; first compound 0.01581 µM): 0.471
relative viability ([4]; first compound 0.05 µM): 0.533
relative viability ([4]; first compound 0.1581 µM): 0.356
relative viability ([4]; first compound 0.5 µM): 0.586
relative viability ([5]; first compound 0.005 µM): 0.248
relative viability ([5]; first compound 0.01581 µM): 0.27
relative viability ([5]; first compound 0.05 µM): 0.289
relative viability ([5]; first compound 0.1581 µM): 0.283
relative viability ([5]; first compound 0.5 µM): 0.274
relative viability ([6]; first compound 0.005 µM): 0.263
relative viability ([6]; first compound 0.01581 µM): 0.256
relative viability ([6]; first compound 0.05 µM): 0.295
relative viability ([6]; first compound 0.1581 µM): 0.242
relative viability ([6]; first compound 0.5 µM): 0.302
relative viability ([7]; first compound 0.005 µM): 0.668
relative viability ([7]; first compound 0.01581 µM): 0.729
relative viability ([7]; first compound 0.05 µM): 0.622
relative viability ([7]; first compound 0.1581 µM): 0.699
relative viability ([7]; first compound 0.5 µM): 0.581
relative viability ([8]; first compound 0.005 µM): 0.381
relative viability ([8]; first compound 0.01581 µM): 0.41
relative viability ([8]; first compound 0.05 µM): 0.441
relative viability ([8]; first compound 0.5 µM): 0.387
relative viability ([9]; first compound 0.005 µM): 0.631
relative viability ([9]; first compound 0.01581 µM): 0.604
relative viability ([9]; first compound 0.05 µM): 0.693
relative viability ([9]; first compound 0.1581 µM): 0.51
relative viability ([9]; first compound 0.5 µM): 0.635
relative viability ([10]; first compound 0.005 µM): 0.736
relative viability ([10]; first compound 0.01581 µM): 0.814
relative viability ([10]; first compound 0.05 µM): 0.758
relative viability ([10]; first compound 0.1581 µM): 0.764
relative viability ([10]; first compound 0.5 µM): 0.807
relative viability ([11]; first compound 0.005 µM): 0.325
relative viability ([11]; first compound 0.01581 µM): 0.34
relative viability ([11]; first compound 0.05 µM): 0.416
relative viability ([11]; first compound 0.1581 µM): 0.289
relative viability ([11]; first compound 0.5 µM): 0.363
relative viability ([12]; first compound 0.005 µM): 0.37
relative viability ([12]; first compound 0.01581 µM): 0.339
relative viability ([12]; first compound 0.05 µM): 0.55
relative viability ([12]; first compound 0.1581 µM): 0.28
relative viability ([12]; first compound 0.5 µM): 0.38
relative viability ([13]; first compound 0.005 µM): 0.464
relative viability ([13]; first compound 0.01581 µM): 0.581
relative viability ([13]; first compound 0.05 µM): 0.613
relative viability ([13]; first compound 0.1581 µM): 0.484
relative viability ([13]; first compound 0.5 µM): 0.783
relative viability ([14]; first compound 0.005 µM): 0.58
relative viability ([14]; first compound 0.01581 µM): 0.735
relative viability ([14]; first compound 0.05 µM): 0.604
relative viability ([14]; first compound 0.1581 µM): 0.602
relative viability ([14]; first compound 0.5 µM): 0.591
relative viability ([15]; first compound 0.005 µM): 0.571
relative viability ([15]; first compound 0.01581 µM): 0.511
relative viability ([15]; first compound 0.05 µM): 0.536
relative viability ([15]; first compound 0.1581 µM): 0.484
relative viability ([15]; first compound 0.5 µM): 0.31
relative viability ([16]; first compound 0.005 µM): 0.337
relative viability ([16]; first compound 0.01581 µM): 0.296
relative viability ([16]; first compound 0.05 µM): 0.449
relative viability ([16]; first compound 0.1581 µM): 0.253
relative viability ([16]; first compound 0.5 µM): 0.36
relative viability ([17]; first compound 0.005 µM): 0.936
relative viability ([17]; first compound 0.01581 µM): 0.995
relative viability ([17]; first compound 0.05 µM): 0.901
relative viability ([17]; first compound 0.1581 µM): 0.485
relative viability ([17]; first compound 0.5 µM): 0.742
relative viability ([18]; first compound 0.005 µM): 0.365
relative viability ([18]; first compound 0.01581 µM): 0.402
relative viability ([18]; first compound 0.05 µM): 0.453
relative viability ([18]; first compound 0.1581 µM): 0.405
relative viability ([18]; first compound 0.5 µM): 0.396
relative viability ([19]; first compound 0.005 µM): 0.349
relative viability ([19]; first compound 0.01581 µM): 0.56
relative viability ([19]; first compound 0.05 µM): 0.351
relative viability ([19]; first compound 0.5 µM): 0.398
relative viability ([20]; first compound 0.005 µM): 0.484
relative viability ([20]; first compound 0.01581 µM): 0.518
relative viability ([20]; first compound 0.05 µM): 0.529
relative viability ([20]; first compound 0.1581 µM): 0.465
relative viability ([20]; first compound 0.5 µM): 0.568

Reference: the supplement of paper PMC10307832
